Experimental data from PubChem BioAssay (NCI).
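Step 1: Grow cells in 96-well plates. Step 2: Expose to compound for 48 hours at 5 concentrations. Step 3: Interpolate endpoints linearly; if unreached, use highest concentration. GI50 marks 50% less growth. The concentration for full growth arrest is given as TGI.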

Legend:
Experiment in all cases: NCI anticancer screen, dose series, 48 h
SR leukemia = test system: SR leukemia
A498 renal = test system: A498 renal
SF-268 CNS = test system: SF-268 CNS
SK-MEL-5 melanoma = test system: SK-MEL-5 melanoma
HCT-15 colon = test system: HCT-15 colon
T-47D breast = test system: T-47D breast
SK-MEL-2 melanoma = test system: SK-MEL-2 melanoma
UO-31 renal = test system: UO-31 renal
NCI/ADR-RES ovarian = test system: NCI/ADR-RES ovarian
OVCAR-8 ovarian = test system: OVCAR-8 ovarian
NCI-H460 lung = test system: NCI-H460 lung
SF-539 CNS = test system: SF-539 CNS
IGROV1 ovarian = test system: IGROV1 ovarian
LOX IMVI melanoma = test system: LOX IMVI melanoma
HOP-62 NSCLC = test system: HOP-62 NSCLC
MDA-MB-231 breast = test system: MDA-MB-231 breast
OVCAR-3 ovarian = test system: OVCAR-3 ovarian
M14 melanoma = test system: M14 melanoma
MDA-MB-435 = test system: MDA-MB-435
CAKI-1 renal = test system: CAKI-1 renal
UACC-62 melanoma = test system: UACC-62 melanoma
RXF 393 renal = test system: RXF 393 renal
SW-620 colon = test system: SW-620 colon
A549 NSCLC = test system: A549 NSCLC
KM12 colon = test system: KM12 colon
K-562 leukemia = test system: K-562 leukemia
HCC-2998 colon = test system: HCC-2998 colon
SN12C renal = test system: SN12C renal
MALME-3M melanoma = test system: MALME-3M melanoma
SNB-75 CNS = test system: SNB-75 CNS
NCI-H226 lung = test system: NCI-H226 lung
OVCAR-4 ovarian = test system: OVCAR-4 ovarian
SK-OV-3 ovarian = test system: SK-OV-3 ovarian
U251 CNS = test system: U251 CNS
BT-549 breast = test system: BT-549 breast
NCI-H23 lung = test system: NCI-H23 lung
SNB-19 CNS = test system: SNB-19 CNS
COLO 205 colon = test system: COLO 205 colon
NCI-H522 lung = test system: NCI-H522 lung
DU-145 prostate = test system: DU-145 prostate
SK-MEL-28 melanoma = test system: SK-MEL-28 melanoma
HCT-116 colon = test system: HCT-116 colon
786-0 renal = test system: 786-0 renal
HL-60(TB) leukemia = test system: HL-60(TB) leukemia
HS 578T breast = test system: HS 578T breast
MOLT-4 leukemia = test system: MOLT-4 leukemia
UACC-257 melanoma = test system: UACC-257 melanoma
MCF7 breast = test system: MCF7 breast
SF-295 CNS = test system: SF-295 CNS
ACHN renal = test system: ACHN renal
OVCAR-5 ovarian = test system: OVCAR-5 ovarian
HT29 colon = test system: HT29 colon
HOP-92 NSCLC = test system: HOP-92 NSCLC
TK-10 renal = test system: TK-10 renal

Compound: Nc1c(C(=O)Nc2cccc([N+](=O)[O-])c2)sc2nc3c(cc12)C(O)CCC3 (stereo not drawn)
- GI50 (SR leukemia): 1.96 µM
- TGI (SR leukemia): > 100 µM
- GI50 (A498 renal): 2.7 µM
- TGI (A498 renal): > 100 µM
- GI50 (SF-268 CNS): 9.62 µM
- TGI (SF-268 CNS): > 89.8 µM
- GI50 (SK-MEL-5 melanoma): 3.59 µM
- TGI (SK-MEL-5 melanoma): > 100 µM
- GI50 (HCT-15 colon): 2.82 µM
- TGI (HCT-15 colon): > 100 µM
- GI50 (T-47D breast): 6.59 µM
- TGI (T-47D breast): > 100 µM
- GI50 (SK-MEL-2 melanoma): 5.4 µM
- TGI (SK-MEL-2 melanoma): > 92.2 µM
- GI50 (UO-31 renal): > 100 µM
- TGI (UO-31 renal): > 100 µM
- GI50 (NCI/ADR-RES ovarian): 4.72 µM
- TGI (NCI/ADR-RES ovarian): > 100 µM
- GI50 (OVCAR-8 ovarian): 10.8 µM
- TGI (OVCAR-8 ovarian): > 100 µM
- GI50 (NCI-H460 lung): 4.93 µM
- TGI (NCI-H460 lung): > 100 µM
- GI50 (SF-539 CNS): 5.06 µM
- TGI (SF-539 CNS): > 93.7 µM
- GI50 (IGROV1 ovarian): 26 µM
- TGI (IGROV1 ovarian): > 100 µM
- GI50 (LOX IMVI melanoma): 7.61 µM
- TGI (LOX IMVI melanoma): > 100 µM
- GI50 (HOP-62 NSCLC): 6.66 µM
- TGI (HOP-62 NSCLC): > 100 µM
- GI50 (MDA-MB-231 breast): 21.3 µM
- TGI (MDA-MB-231 breast): > 100 µM
- GI50 (OVCAR-3 ovarian): 4.53 µM
- TGI (OVCAR-3 ovarian): > 100 µM
- GI50 (M14 melanoma): 3.39 µM
- TGI (M14 melanoma): > 100 µM
- GI50 (MDA-MB-435): 0.403 µM
- TGI (MDA-MB-435): 2.78 µM
- GI50 (CAKI-1 renal): > 100 µM
- TGI (CAKI-1 renal): > 100 µM
- GI50 (UACC-62 melanoma): 5.93 µM
- TGI (UACC-62 melanoma): > 100 µM
- GI50 (RXF 393 renal): 6.76 µM
- TGI (RXF 393 renal): > 65.8 µM
- GI50 (SW-620 colon): 3.48 µM
- TGI (SW-620 colon): > 100 µM
- GI50 (A549 NSCLC): 5.82 µM
- TGI (A549 NSCLC): > 100 µM
- GI50 (KM12 colon): 3.5 µM
- TGI (KM12 colon): > 100 µM
- GI50 (K-562 leukemia): 0.852 µM
- TGI (K-562 leukemia): > 100 µM
- GI50 (HCC-2998 colon): > 100 µM
- TGI (HCC-2998 colon): > 100 µM
- GI50 (SN12C renal): 7.39 µM
- TGI (SN12C renal): > 100 µM
- GI50 (MALME-3M melanoma): 26.9 µM
- TGI (MALME-3M melanoma): > 100 µM
- GI50 (SNB-75 CNS): 5.38 µM
- TGI (SNB-75 CNS): 30.5 µM
- GI50 (NCI-H226 lung): 29.6 µM
- TGI (NCI-H226 lung): > 100 µM
- GI50 (OVCAR-4 ovarian): > 36.2 µM
- TGI (OVCAR-4 ovarian): > 100 µM
- GI50 (SK-OV-3 ovarian): 10.2 µM
- TGI (SK-OV-3 ovarian): > 100 µM
- GI50 (U251 CNS): 6.3 µM
- TGI (U251 CNS): > 72.4 µM
- GI50 (BT-549 breast): 7.76 µM
- TGI (BT-549 breast): 57.3 µM
- GI50 (NCI-H23 lung): > 100 µM
- TGI (NCI-H23 lung): > 100 µM
- GI50 (SNB-19 CNS): 18.7 µM
- TGI (SNB-19 CNS): > 100 µM
- GI50 (COLO 205 colon): 3.51 µM
- TGI (COLO 205 colon): > 100 µM
- GI50 (NCI-H522 lung): 6.11 µM
- TGI (NCI-H522 lung): > 100 µM
- GI50 (DU-145 prostate): 20.5 µM
- TGI (DU-145 prostate): > 100 µM
- GI50 (SK-MEL-28 melanoma): 16.9 µM
- TGI (SK-MEL-28 melanoma): > 100 µM
- GI50 (HCT-116 colon): 4.09 µM
- TGI (HCT-116 colon): > 100 µM
- GI50 (786-0 renal): 13.5 µM
- TGI (786-0 renal): > 100 µM
- GI50 (HL-60(TB) leukemia): 2.37 µM
- TGI (HL-60(TB) leukemia): > 100 µM
- GI50 (HS 578T breast): 11 µM
- TGI (HS 578T breast): > 100 µM
- GI50 (MOLT-4 leukemia): 5.74 µM
- TGI (MOLT-4 leukemia): > 100 µM
- GI50 (UACC-257 melanoma): > 29.8 µM
- TGI (UACC-257 melanoma): > 100 µM
- GI50 (MCF7 breast): 3.14 µM
- TGI (MCF7 breast): > 100 µM
- GI50 (SF-295 CNS): 4.35 µM
- TGI (SF-295 CNS): > 54 µM
- GI50 (ACHN renal): 30.6 µM
- TGI (ACHN renal): > 100 µM
- GI50 (OVCAR-5 ovarian): > 100 µM
- TGI (OVCAR-5 ovarian): > 100 µM
- GI50 (HT29 colon): 2.89 µM
- TGI (HT29 colon): > 100 µM
- GI50 (HOP-92 NSCLC): 9.54 µM
- TGI (HOP-92 NSCLC): > 67 µM
- GI50 (TK-10 renal): 15.9 µM
- TGI (TK-10 renal): > 100 µM
